Experimental findings from US10836789B2, “Inhibitors of glucocorticoid receptor” (ORIC Pharmaceuticals, Inc., priority 2016, dated 2020) are described below.

The target in one experiment is T1, GR (Homo sapiens, UniProt P04150).
T1 construct: expressed in transfected cells; host or cells: CHO cells carrying GR and an MMTV-luciferase reporter
T1 sequence (P04150 1-777): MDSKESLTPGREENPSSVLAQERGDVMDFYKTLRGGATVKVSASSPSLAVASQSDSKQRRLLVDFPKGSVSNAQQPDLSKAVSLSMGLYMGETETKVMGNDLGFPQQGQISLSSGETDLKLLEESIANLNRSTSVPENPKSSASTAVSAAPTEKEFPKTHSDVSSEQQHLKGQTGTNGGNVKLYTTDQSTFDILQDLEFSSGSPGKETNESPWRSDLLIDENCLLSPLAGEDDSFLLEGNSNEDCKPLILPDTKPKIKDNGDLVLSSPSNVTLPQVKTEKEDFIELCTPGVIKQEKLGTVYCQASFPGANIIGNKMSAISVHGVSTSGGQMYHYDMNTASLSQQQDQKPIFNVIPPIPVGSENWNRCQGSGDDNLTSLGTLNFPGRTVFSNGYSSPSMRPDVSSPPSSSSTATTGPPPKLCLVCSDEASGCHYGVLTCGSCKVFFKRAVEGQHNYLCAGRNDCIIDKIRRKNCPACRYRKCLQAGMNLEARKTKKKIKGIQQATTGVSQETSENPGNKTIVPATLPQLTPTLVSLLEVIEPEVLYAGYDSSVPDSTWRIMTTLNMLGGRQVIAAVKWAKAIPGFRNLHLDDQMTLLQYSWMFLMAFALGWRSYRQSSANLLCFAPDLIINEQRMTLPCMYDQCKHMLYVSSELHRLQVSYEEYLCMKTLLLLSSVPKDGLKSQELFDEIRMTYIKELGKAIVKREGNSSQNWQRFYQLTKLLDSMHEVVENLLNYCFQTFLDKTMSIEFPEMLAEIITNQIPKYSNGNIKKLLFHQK
As to the kind of experiment: GR luciferase antagonist assay (CHO/GR/MMTV Luciferase cells). It counts as cell-based. Particulars: 10 nM Dexamethasone final, 16-18 h. As to the method: Example A: […] GR Luciferase Assay Cell Line: CHO/GR/MMTV Luciferase Culture Media: DMEM (with phenol red)+10% FBS Assay Media: DMEM (without phenol red)+10% CSS A 1×10 cm plate of cells was split into 2×15 cm plates in Assay Media (CSS). After 4 days, the cells in the Assay Media were collected and counted. Antagonist Assay: 1.5×10^4 cells per well were plated in a 384-well white walled TC plate in 20 ul of Assay Media containing 12.5 nM Dexamethasone (final concentration=10 nM). The plates were covered with film to avoid evaporation and placed in a TC incubator. Media/drug dilutions were prepared in Assay Media in 96-well sterile plates. 100 ul of Assay Media was distributed in aliquots into 96-well plates with an 8-Channel pipette (20-200 ul). 0.5 ul of 1000× concentration of compounds were added to the plates with 8-Channel pipette (0.5-10 ul). The plates were shaken for 15 seconds to mix. The film was removed from the 384-well plates with assay cells. 5 ul of media/drug dilutions were added to appropriate wells. The plates were covered with film to avoid evaporation and placed in a TC incubator overnight. After 16-18 h in the incubator, the plates were removed and sat at room temperature for 10 minutes to equilibrate. The Reagent Dispenser was setup to distribute 25 ul aliquots of OneGlo Luciferase Reagent (at room temperature) to each well of the 384-well plate using standard cassette. After OneGlo was added to the plates, the plates were shaken briefly, then incubated in the dark at room temperature for about 3 minutes. The plates were read using a Tecan or Promega luminometer. The ability of the compounds disclosed herein to inhibit GR activity was quantified and the respective IC50 value was determined. Table 3 provides the cellular IC50 values of various substituted steroidal compounds disclosed herein.

For another experiment, the system named is AR. Nature of the experiment: AR agonism assay in LNAR reporter cell line. It counts as cell-based. Particulars: LNAR cells (overexpressed AR, 4XARE-Luc), 10% CSS, 18-24 hrs; Mifepristone maximum response set to 1. As to the method: Example B: In Vitro AR Agonism Assay
The AR agonism assay was done in the LNAR reporter cell line which has overexpressed AR and 4XARE-Luc genes. This cell line is sensitive to even minor partial AR agonism activity in hormone-deprived media (CSS). The assays were done in RPMI (without phenol red)+10% CSS using 6000 LNAR cells/well in 384-well plates and compounds were incubated with cells in […] incubator for 18-24 hrs. OneGlo reagent (25 uL/well) was added and plates were read with luminometer within 3 minutes.
To gauge the AR partial agonism activity, Mifepristone is included as a standard in the assay. AR agonism assay results are quantified by determining the ratio of the maximum response of individual compounds to the maximum response of Mifepristone (arbitrarily set to 1). Values of Table 4 are reported as Relative Maximum Response to Mifepristone. This general trend of AR agonism was shown for the class of compounds described herein.

In general, IC50 refers to the point on the concentration scale where inhibition reaches its midpoint. High values mean a need for much substance, low ones inhibition by little substance. Take `CC(C)N(C)c1ccc([C@H]2C[C@@]3(C)[C@@H](CC[C@@]3(O)C#CC(C)(C)C)[C@@H]3CCC4=CC(=O)CC[C@@H]4[C@H]32)cc1` [Compound 2, (8R,9S,10R,11S,13S,14S,17S)-17-(3,3-Dimethylbut-1-yn-1-yl)-17-hydroxy-11-(4-(isopropyl(methyl)amino)phenyl)-13-methyl-1,2,6,7,8,9,10,11,12,13,14,15,16,17-tetradecahydro-3H-cyclopenta[a]phenanthren-3-one]: the IC50 against GR was not above 0.1 µM. In addition, the “Relative Maximum Response to Mifepristone” value (“Relative Maximum Response” below) in the experiment with AR is reported as “A (A: ≤ 0.4)”.

For `CN1CCN(c2ccc([C@H]3C[C@@]4(C)[C@@H](CC[C@@]4(O)C#CC(C)(C)C)[C@@H]4CCC5=CC(=O)CC[C@@H]5[C@H]43)cc2)CC1` [Compound 20], the IC50 against GR was not above 0.1 µM. Further, in the experiment on AR, the “Relative Maximum Response” value is given as “A (A: ≤ 0.4)”.

In turn, `COC(C)(C)C#C[C@]1(O)CC[C@H]2[C@@H]3CCC4=CC(=O)CC[C@@H]4[C@H]3[C@@H](c3ccc(N(C)C(C)C)cc3)C[C@@]21C` [Compound 4, (8R,9S,10R,11S,13S,14S,17S)-17-Hydroxy-11-(4-(isopropyl(methyl)amino)phenyl)-17-(3-methoxy-3-methylbut-1-yn-1-yl)-13-methyl-1,2,6,7,8,9,10,11,12,13,14,15,16,17-tetradecahydro-3H-cyclopenta[a]phenanthren-3-one] yielded an IC50 on GR not above 0.1 µM. Also, the “Relative Maximum Response” value in the experiment on AR is recorded as “A (A: ≤ 0.4)”.

For `CCC(C)(C)C#C[C@]1(O)CC[C@H]2[C@@H]3CCC4=CC(=O)CC[C@@H]4[C@H]3[C@@H](c3ccc(N(C)C)cc3)C[C@@]21C` [Compound 6, (8R,9S,10R,11S,13S,14S,17S)-11-(4-(Dimethylamino)phenyl)-17-(3,3-dimethylpent-1-yn-1-yl)-17-hydroxy-13-methyl-1,2,6,7,8,9,10,11,12,13,14,15,16,17-tetradecahydro-3H-cyclopenta[a]phenanthren-3-one], the IC50 against GR is not above 0.1 µM. Besides, the “Relative Maximum Response” value with AR is reported as “A (A: ≤ 0.4)”.

On to `CC(C)(C)C#C[C@]1(O)CC[C@H]2[C@@H]3CCC4=CC(=O)CC[C@@H]4[C@H]3[C@@H](c3ccc(N4CCOCC4)cc3)C[C@@]21C` [Compound 7, (8R,9S,10R,11S,13S,14S,17S)-17-(3,3-Dimethylbut-1-yn-1-yl)-17-hydroxy-13-methyl-11-(4-morpholinophenyl)-1,2,6,7,8,9,10,11,12,13,14,15,16,17-tetradecahydro-3H-cyclopenta[a]phenanthren-3-one], for which the IC50 at GR was not above 0.1 µM. In addition, the “Relative Maximum Response” value in the experiment on AR is given as “A (A: ≤ 0.4)”.

`CC(C)Nc1ccc([C@H]2C[C@@]3(C)[C@@H](CC[C@@]3(O)C#CC(C)(C)C)[C@@H]3CCC4=CC(=O)CC[C@@H]4[C@H]32)cc1F` [Compound 14, (8R,9S,10R,11S,13S,14S,17S)-17-(3,3-dimethylbut-1-yn-1-yl)-11-(3-fluoro-4-(isopropylamino)phenyl)-17-hydroxy-13-methyl-1,2,6,7,8,9,10,11,12,13,14,15,16,17-tetradecahydro-3H-cyclopenta[a]phenanthren-3-one] came in with a concentration for half-maximal inhibition (IC50) against GR of more than 0.1 µM. Moreover, the “Relative Maximum Response” value in the experiment with AR is reported as “A (A: ≤ 0.4)”.

For `CC(C)N(C)c1ccc([C@H]2C[C@@]3(C)[C@@H](CC(C)[C@@]3(O)C#CC(C)(C)C)[C@@H]3CCC4=CC(=O)CC[C@@H]4[C@H]32)cc1` (single isomer, unassigned) [Compound 8], the IC50 against GR is not above 0.1 µM. In the experiment with AR, the “Relative Maximum Response” value is reported as “A (A: ≤ 0.4)”.

Take `CC#C[C@]1(O)CC[C@H]2[C@@H]3CCC4=CC(=O)CC[C@]4(C)[C@H]3[C@@H](c3ccc(N(C)C(C)C)cc3)C[C@@]21C` [Compound 19]: the IC50 on GR was more than 0.1 µM. For the same compound, in the experiment on AR, the “Relative Maximum Response” value is on record as “A (A: ≤ 0.4)”.

In the case of `CN(c1ccc([C@H]2C[C@@]3(C)[C@@H](CC[C@@]3(O)C#CC(C)(C)C)[C@@H]3CCC4=CC(=O)CC[C@@H]4[C@H]32)cc1)C(C)(C)C` [Compound 11, (8R,9S,10R,11S,13S,14S,17S)-11-(4-(tert-Butyl(methyl)amino)phenyl)-17-(3,3-dimethylbut-1-yn-1-yl)-17-hydroxy-13-methyl-1,2,6,7,8,9,10,11,12,13,14,15,16,17-tetradecahydro-3H-cyclopenta[a]phenanthren-3-one], the IC50 on GR is not above 0.1 µM. Moreover, the “Relative Maximum Response” value in the experiment with AR is “A (A: ≤ 0.4)”.

In turn, `CC(C)Nc1ccc([C@H]2C[C@@]3(C)[C@@H](CC[C@@]3(O)C#CC(C)(C)C)[C@@H]3CCC4=CC(=O)CC[C@@H]4[C@H]32)cc1` [Compound 10, (8R,9S,10R,11S,13S,14S,17S)-17-(3,3-Dimethylbut-1-yn-1-yl)-17-hydroxy-11-(4-(isopropylamino)phenyl)-13-methyl-1,2,6,7,8,9,10,11,12,13,14,15,16,17-tetradecahydro-3H-cyclopenta[a]phenanthren-3-one] had an IC50 against GR not above 0.1 µM. Moreover, the “Relative Maximum Response” value in the experiment with AR is listed as “A (A: ≤ 0.4)”.

Compound `CC(C)(C)C#C[C@]1(O)CC[C@H]2[C@@H]3CCC4=CC(=O)CC[C@@H]4[C@H]3[C@@H](c3ccc(N4CCN(C(=O)OC(C)(C)C)CC4)cc3)C[C@@]21C` [Compound 25] showed an IC50 on GR not above 0.1 µM. Also, the “Relative Maximum Response” value in the experiment on AR is on record as “A (A: ≤ 0.4)”.

With `CC(C)(C)C#C[C@]1(O)CC[C@H]2[C@@H]3CCC4=CC(=O)CC[C@@H]4[C@H]3[C@@H](c3ccc(N4CCCC4)cc3)C[C@@]21C` [Compound 1, (8R,9S,10R,11S,13S,14S,17S)-17-(3,3-Dimethylbut-1-yn-1-yl)-17-hydroxy-13-methyl-11-(4-(pyrrolidin-1-yl)phenyl)-1,2,6,7,8,9,10,11,12,13,14,15,16,17-tetradecahydro-3H-cyclopenta[a]phenanthren-3-one], the IC50 at GR is not above 0.1 µM. Moreover, in the experiment on AR, the “Relative Maximum Response” value is recorded as “A (A: ≤ 0.4)”.

`CC(C)Nc1ccc([C@H]2C[C@@]3(C)[C@@H](CC[C@@]3(O)C#CC3CC3)[C@@H]3CCC4=CC(=O)CC[C@]4(C)[C@H]32)cc1` [Compound 18] gave an IC50 against GR not above 0.1 µM. Further, in the experiment on AR, the “Relative Maximum Response” value is given as “A (A: ≤ 0.4)”.

Turning to `COCC#C[C@]1(O)CC[C@H]2[C@@H]3CCC4=CC(=O)CC[C@]4(C)[C@H]3[C@@H](c3ccc(N(C)C)cc3)C[C@@]21C` [Compound 17, (8S,9R,10R,11S,13S,14S,17S)-11-(4-(Dimethylamino)phenyl)-17-hydroxy-17-(3-methoxyprop-1-yn-1-yl)-10,13-dimethyl-1,2,6,7,8,9,10,11,12,13,14,15,16,17-tetradecahydro-3H-cyclopenta[a]phenanthren-3-one], on GR, the IC50 is more than 0.1 µM. Besides, the “Relative Maximum Response” value with AR is “A (A: ≤ 0.4)”.
